Results: paper PMC5638539, “A mannitol/sorbitol receptor stimulates dietary intake in Tribolium castaneum” (PLoS ONE, 2017)

What was measured:
[1] = molecular target: T1, TcGr20 (gustatory receptor 20) (Tribolium castaneum, UniProt D2A5I4); test: two-electrode voltage clamp in Xenopus oocytes expressing TcGr20, dose-response; water-injected control negative; assay type: cell-based
T1 construct: ORF of TcGr20 expressed in Xenopus oocytes
T1 sequence (D2A5I4 1-388): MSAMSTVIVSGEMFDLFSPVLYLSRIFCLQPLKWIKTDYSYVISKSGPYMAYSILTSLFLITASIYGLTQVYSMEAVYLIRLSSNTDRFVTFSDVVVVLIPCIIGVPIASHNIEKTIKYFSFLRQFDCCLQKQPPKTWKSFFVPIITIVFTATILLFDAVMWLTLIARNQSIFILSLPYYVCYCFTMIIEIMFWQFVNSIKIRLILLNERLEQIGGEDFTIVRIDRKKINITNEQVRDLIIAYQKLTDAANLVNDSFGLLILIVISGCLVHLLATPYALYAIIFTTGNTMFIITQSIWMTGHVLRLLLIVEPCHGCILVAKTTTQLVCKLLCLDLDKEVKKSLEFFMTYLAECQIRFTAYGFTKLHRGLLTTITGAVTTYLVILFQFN

[2] = molecular target: T1, TcGr20 (gustatory receptor 20); test: two-electrode voltage clamp in Xenopus oocytes expressing TcGr20, dose-response; assay type: cell-based

SMILES	EC50 [1] [mM]	EC50 [2] [mM]
OC[C@@H](O)[C@@H](O)[C@H](O)[C@H](O)CO [mannitol]	72.6 ± 9.1	–
OC[C@@H](O)[C@@H](O)[C@H](O)[C@@H](O)CO [sorbitol]	–	90.6 ± 10.4
